Reference: PubChem BioAssay AID328 (DTP/NCI, 2004)
Where “and” joins values, the source holds several entries; their conditions need not be identical. Identical values can stand only once. Toxic doses and inconclusive results are not listed.

Test system: BDF1 mice, P388 leukemia ip, median survival T/C
Assay: NCI In Vivo Anticancer Drug Screen. Data for tumor model P388 Leukemia (intraperitoneal) in B6D2F1 (BDF1) mice
Conditions: endpoint: median survival time, higher = longer survival
Procedure, shortened: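 Survival ratio, drug arm over vehicle arm, in mice with a transplanted tumour.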

[1] = dose: 100.0 mg/kg/injection, schedule: Q04DX003 (ip), vehicle: saline
[2] = dose: 200.0 mg/kg/injection, schedule: Q04DX003 (ip), vehicle: saline
[3] = dose: 400.0 mg/kg/injection, schedule: Q04DX003 (ip), vehicle: saline
[4] = dose: 25.0 mg/kg/injection, schedule: Q04DX003 (ip), vehicle: saline with Tween-80
[5] = dose: 100.0 mg/kg/injection, schedule: Q01DX009 (ip), vehicle: saline with Tween-80
[6] = dose: 200.0 mg/kg/injection, schedule: Q01DX009 (ip), vehicle: saline with Tween-80
[7] = dose: 400.0 mg/kg/injection, schedule: Q01DX009 (ip), vehicle: saline with Tween-80
[8] = dose: 6.25 mg/kg/injection, schedule: Q01DX009 (ip), vehicle: saline with Tween-80
[9] = dose: 12.5 mg/kg/injection, schedule: Q01DX009 (ip), vehicle: saline with Tween-80
[10] = dose: 25.0 mg/kg/injection, schedule: Q01DX009 (ip), vehicle: saline with Tween-80
[11] = dose: 100.0 mg/kg/injection, schedule: Q01DX009 (ip), vehicle: saline
[12] = dose: 200.0 mg/kg/injection, schedule: Q01DX009 (ip), vehicle: saline
[13] = dose: 100.0 mg/kg/injection, schedule: Q04DX003 (ip), vehicle: saline with Tween-80
[14] = dose: 200.0 mg/kg/injection, schedule: Q04DX003 (ip), vehicle: saline with Tween-80
[15] = dose: 400.0 mg/kg/injection, schedule: Q04DX003 (ip), vehicle: saline with Tween-80
[16] = dose: 50.0 mg/kg/injection, schedule: Q04DX003 (ip), vehicle: saline with Tween-80

## C#CCn1cnc2c(Cl)ncnc21
dose: 50.0 mg/kg/injection, schedule: Q01DX009 (ip), vehicle: other
  T/C: 118 % of control
dose: 100.0 mg/kg/injection, schedule: Q01DX009 (ip), vehicle: other
  T/C: 100 % of control
[1]
  T/C: 108 % of control
[2]
  T/C: 104 % of control
[3]
  T/C: 95 % of control

## Cc1nc(N2CC2)nc(N2CC2)c1[N+](=O)[O-]
dose: 0.62 mg/kg/injection, schedule: Q01DX010 (ip), vehicle: saline
  T/C: 122 % of control
dose: 0.63 mg/kg/injection, schedule: Q01DX010 (ip), vehicle: saline
  T/C: 100 % of control

## O=C1c2cc(O)c(O)cc2O[C@H](c2ccc(O)c(O)c2)[C@H]1O
dose: 7.5 mg/kg/injection, schedule: Q01DX010 (ip), vehicle: saline
  T/C: 100 % of control
dose: 15.0 mg/kg/injection, schedule: Q01DX009 (ip), vehicle: saline
  T/C: 113 % of control and 118 % of control
dose: 15.0 mg/kg/injection, schedule: Q01DX010 (ip), vehicle: saline
  T/C: 109 % of control
dose: 30.0 mg/kg/injection, schedule: Q01DX009 (ip), vehicle: saline
  T/C: 100 % of control
dose: 30.0 mg/kg/injection, schedule: Q01DX010 (ip), vehicle: saline
  T/C: 109 % of control
dose: 60.0 mg/kg/injection, schedule: Q01DX009 (ip), vehicle: saline
  T/C: 104 % of control and 122 % of control
dose: 125.0 mg/kg/injection, schedule: Q01DX009 (ip), vehicle: saline
  T/C: 104 % of control
dose: 350.0 mg/kg/injection, schedule: Q01DX009 (ip), vehicle: saline
  T/C: 117 % of control

## CCCCN(CCCC)CC(O)c1ccc2cc(Cl)cc(Cl)c2n1 (configuration not stated)
dose: 6.25 mg/kg/injection, schedule: Q04DX003 (ip), vehicle: saline with Tween-80
  T/C: 110 % of control
dose: 12.5 mg/kg/injection, schedule: Q04DX003 (ip), vehicle: saline with Tween-80
  T/C: 115 % of control
[4]
  T/C: 110 % of control

## CC1(c2ccc(-c3ccccc3)cc2)NC(=O)NC1=O (configuration not stated)
[5]
  T/C: 91 % of control
[6]
  T/C: 95 % of control
[7]
  T/C: 88 % of control

## CCc1ccccc1OS(=O)(=O)c1ccccc1[N+](=O)[O-]
dose: 100.0 mg/kg/injection, schedule: Q04DX003 (ip), vehicle: Klucel (hydroxypropylcellulose) (HPC)
  T/C: 100 % of control
dose: 200.0 mg/kg/injection, schedule: Q04DX003 (ip), vehicle: Klucel (hydroxypropylcellulose) (HPC)
  T/C: 100 % of control
dose: 400.0 mg/kg/injection, schedule: Q04DX003 (ip), vehicle: Klucel (hydroxypropylcellulose) (HPC)
  T/C: 100 % of control

## O=C1c2ccccc2C(=O)c2c(O)c3c(c(O)c21)CC=CC3
dose: 3.12 mg/kg/injection, schedule: Q01DX009 (ip), vehicle: saline with Tween-80
  T/C: 107 % of control
[8]
  T/C: 112 % of control
[9]
  T/C: 104 % of control
[10]
  T/C: 98 % of control
dose: 50.0 mg/kg/injection, schedule: Q01DX009 (ip), vehicle: saline with Tween-80
  T/C: 98 % of control

## CCCCCCCCCCCC1CCCC(C)N1 (configuration not stated)
[1]
  T/C: 100 % of control
[2]
  T/C: 95 % of control
[3]
  T/C: 91 % of control and 95 % of control

## CCCCCCCCC(O)CCC (configuration not stated)
[11]
  T/C: 100 % of control
[12]
  T/C: 109 % of control

## CC1CCC2(OC1)OC1C(O)C3C4CCC5CC(OC6OC(CO)C(OC7OC(CO)C(O)C(OC8OCC(O)C(O)C8O)C7OC7OC(CO)C(O)C(OC8OC(CO)C(O)C(O)C8O)C7O)C(O)C6O)C(O)CC5(C)C4CCC3(C)C1C2C (configuration not stated)
[8]
  T/C: 100 % of control
dose: 6.25 mg/kg/injection, schedule: Q04DX003 (ip), vehicle: saline
  T/C: 92 % of control
[9]
  T/C: 95 % of control
dose: 12.5 mg/kg/injection, schedule: Q04DX003 (ip), vehicle: saline
  T/C: 92 % of control
[10]
  T/C: 104 % of control
dose: 25.0 mg/kg/injection, schedule: Q04DX003 (ip), vehicle: saline
  T/C: 96 % of control

## COC(=O)NC1CCCCC1I (configuration not stated)
[5]
  T/C: 100 % of control
[13]
  T/C: 100 % of control
[6]
  T/C: 100 % of control
[14]
  T/C: 100 % of control
[7]
  T/C: 100 % of control
[15]
  T/C: 109 % of control

## [Mg+2]
dose: 100.0 mg/kg/injection, schedule: Q01DX010 (ip), vehicle: saline
  T/C: 100 % of control
dose: 200.0 mg/kg/injection, schedule: Q01DX010 (ip), vehicle: saline
  T/C: 100 % of control
dose: 400.0 mg/kg/injection, schedule: Q01DX010 (ip), vehicle: saline
  T/C: 100 % of control

## Cc1nc([N+](=O)[O-])cn1CCC#N
[13]
  T/C: 98 % of control
[14]
  T/C: 99 % of control
[15]
  T/C: 86 % of control

## CCOC(=O)CCCC1(C)C(C#N)C(=O)NC(=O)C1C#N (configuration not stated)
[1]
  T/C: 104 % of control
[2]
  T/C: 100 % of control
[3]
  T/C: 118 % of control

## NC(N)=NCCCCCC(=O)Oc1ccc([N+](=O)[O-])cc1
dose: 50.0 mg/kg/injection, schedule: Q01DX009 (ip), vehicle: saline
  T/C: 96 % of control
dose: 50.0 mg/kg/injection, schedule: Q04DX003 (ip), vehicle: saline
  T/C: 90 % of control and 91 % of control
[11]
  T/C: 99 % of control
[1]
  T/C: 87 % of control and 90 % of control
[12]
  T/C: 115 % of control
[2]
  T/C: 91 % of control and 100 % of control

## O=[N+]([O-])c1ccc(S(=O)(=O)c2ccc([N+](=O)[O-])cc2)cc1
[16]
  T/C: 101 % of control
[14]
  T/C: 110 % of control
[15]
  T/C: 93 % of control

## CC(=O)c1ccc(-c2ccccc2)cc1
[5]
  T/C: 100 % of control
[6]
  T/C: 91 % of control
[7]
  T/C: 95 % of control

## CC(C)(C)C1Sc2nc3ccccc3n2C1=O (configuration not stated)
dose: 12.5 mg/kg/injection, schedule: Q01DX009 (ip), vehicle: Klucel (hydroxypropylcellulose) (HPC)
  T/C: 114 % of control
dose: 12.5 mg/kg/injection, schedule: Q04DX003 (ip), vehicle: Klucel (hydroxypropylcellulose) (HPC)
  T/C: 100 % of control
dose: 25.0 mg/kg/injection, schedule: Q01DX009 (ip), vehicle: Klucel (hydroxypropylcellulose) (HPC)
  T/C: 114 % of control
dose: 25.0 mg/kg/injection, schedule: Q04DX003 (ip), vehicle: Klucel (hydroxypropylcellulose) (HPC)
  T/C: 120 % of control
dose: 50.0 mg/kg/injection, schedule: Q04DX003 (ip), vehicle: Klucel (hydroxypropylcellulose) (HPC)
  T/C: 120 % of control

## CCN(CC)CCNC(=O)c1ccc(COc2ccccc2)cc1
dose: 50.0 mg/kg/injection, schedule: Q01DX005 (ip), vehicle: saline
  T/C: 97 % of control
dose: 100.0 mg/kg/injection, schedule: Q01DX005 (ip), vehicle: saline
  T/C: 111 % of control
dose: 200.0 mg/kg/injection, schedule: Q01DX005 (ip), vehicle: saline
  T/C: 97 % of control

## CCCCOc1ccc(NC(N)=Nc2ccc(Cl)cc2)cc1
dose: 3.12 mg/kg/injection, schedule: Q01DX010 (ip), vehicle: carboxymethylcellulose (CMC)
  T/C: 95 % of control
dose: 12.5 mg/kg/injection, schedule: Q01DX010 (ip), vehicle: carboxymethylcellulose (CMC)
  T/C: 90 % of control
dose: 25.0 mg/kg/injection, schedule: Q01DX010 (ip), vehicle: carboxymethylcellulose (CMC)
  T/C: 95 % of control
[4]
  T/C: 109 % of control
dose: 50.0 mg/kg/injection, schedule: Q01DX010 (ip), vehicle: carboxymethylcellulose (CMC)
  T/C: 95 % of control
[16]
  T/C: 90 % of control

## CC1CN(Cc2cccc(C#N)c2)CC(C)N1 (configuration not stated)
dose: 6.25 mg/kg/injection, schedule: Q01DX009 (ip), vehicle: water
  T/C: 95 % of control
dose: 12.5 mg/kg/injection, schedule: Q01DX009 (ip), vehicle: water
  T/C: 110 % of control
dose: 25.0 mg/kg/injection, schedule: Q01DX009 (ip), vehicle: water
  T/C: 101 % of control
dose: 25.0 mg/kg/injection, schedule: Q04DX003 (ip), vehicle: water
  T/C: 101 % of control
dose: 50.0 mg/kg/injection, schedule: Q01DX009 (ip), vehicle: water
  T/C: 95 % of control
dose: 50.0 mg/kg/injection, schedule: Q04DX003 (ip), vehicle: water
  T/C: 100 % of control
dose: 100.0 mg/kg/injection, schedule: Q01DX009 (ip), vehicle: water
  T/C: 110 % of control
dose: 100.0 mg/kg/injection, schedule: Q04DX003 (ip), vehicle: water
  T/C: 111 % of control

## CCOC(=O)c1cnc(SCc2ccccc2Cl)nc1N1CC1
dose: 10.6 mg/kg/injection, schedule: Q01DX009 (ip), vehicle: Klucel (hydroxypropylcellulose) (HPC)
  T/C: 108 % of control
dose: 28.05 mg/kg/injection, schedule: Q01DX009 (ip), vehicle: Klucel (hydroxypropylcellulose) (HPC)
  T/C: 114 % of control
dose: 63.75 mg/kg/injection, schedule: Q01DX009 (ip), vehicle: Klucel (hydroxypropylcellulose) (HPC)
  T/C: 152 % of control
